Columns and labels:
Format in all cases: functional
[1] = Tested in vitro for mixed Lymphocyte reaction; 100 times less active than cyclosporin A
[2] = biological target: T1, Interleukin-2 (Mus musculus) (UniProt P04351); assay: Tested in vitro for inhibition of Interleukin-2 (IL-2) release; 100 times less active than cyclosporin A
T1 sequence (whole entry): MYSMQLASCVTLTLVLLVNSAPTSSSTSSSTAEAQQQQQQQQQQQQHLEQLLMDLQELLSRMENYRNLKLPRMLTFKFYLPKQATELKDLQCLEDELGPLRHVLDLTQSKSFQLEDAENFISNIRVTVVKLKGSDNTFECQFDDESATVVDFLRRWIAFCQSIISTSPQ

[3] = biological target: T1, Interleukin-2 (Mus musculus); assay: Tested in vitro for inhibition of Interleukin-2 (IL-2) release; 2-3 times less active than compound 1
[4] = Tested in vitro for mixed Lymphocyte reaction; 2-3 times less active than compound 1

SMILES | Activity [2] | Activity [3] | Activity [1] | Activity [4]
CC[C@@H]1NC(=O)[C@H]([C@H](O)[C@H](C)C[C@@H]2C[C@H]2C)N(C)C(=O)[C@H](C(C)C)N(C)C(=O)[C@H](CC(C)C)N(C)C(=O)[C@H](CC(C)C)N(C)C(=O)[C@@H](C)NC(=O)[C@H](C)NC(=O)[C@H](CC(C)C)N(C)C(=O)[C@H](C(C)C)NC(=O)[C@H](CC(C)C)N(C)C(=O)CN(C)C1=O | – | 2-3 times less active than compound 1 | – | 2-3 times less active than compound 1
CC[C@@H]1NC(=O)[C@H]([C@H](O[Si](C)(C)C(C)(C)C)[C@H](C)C[C@H]2OC23CC3)N(C)C(=O)[C@H](C(C)C)N(C)C(=O)[C@H](CC(C)C)N(C)C(=O)[C@H](CC(C)C)N(C)C(=O)[C@@H](C)NC(=O)[C@H](C)NC(=O)[C@H](CC(C)C)N(C)C(=O)[C@H](C(C)C)NC(=O)[C@H](CC(C)C)N(C)C(=O)CN(C)C1=O | 100 times less active than cyclosporin A | – | 100 times less active than cyclosporin A | –
CC=C=CC[C@@H](C)[C@@H](O)[C@H]1C(=O)N[C@@H](CC)C(=O)N(C)CC(=O)N(C)[C@@H](CC(C)C)C(=O)N[C@@H](C(C)C)C(=O)N(C)[C@@H](CC(C)C)C(=O)N[C@@H](C)C(=O)N[C@H](C)C(=O)N(C)[C@@H](CC(C)C)C(=O)N(C)[C@@H](CC(C)C)C(=O)N(C)[C@@H](C(C)C)C(=O)N1C | – | 2-3 times less active than compound 1 | – | 2-3 times less active than compound 1

Second part, led by results:

Activity [2] | Activity [3] | SMILES | Activity [1] | Activity [4]
100 times less active than cyclosporin A | – | CC[C@@H]1NC(=O)[C@H]([C@@H]2OC(C(C)=O)C[C@H]2C)N(C)C(=O)[C@H](C(C)C)N(C)C(=O)[C@H](CC(C)C)N(C)C(=O)[C@H](CC(C)C)N(C)C(=O)[C@@H](C)NC(=O)[C@H](C)NC(=O)[C@H](CC(C)C)N(C)C(=O)[C@H](C(C)C)NC(=O)[C@H](CC(C)C)N(C)C(=O)CN(C)C1=O (stereo not given in full) | 100 times less active than cyclosporin A | –
100 times less active than cyclosporin A | – | CC[C@@H]1NC(=O)[C@H]([C@@H]2O[C@]3(O)CC[C@@H]3C[C@H]2C)N(C)C(=O)[C@H](C(C)C)N(C)C(=O)[C@H](CC(C)C)N(C)C(=O)[C@H](CC(C)C)N(C)C(=O)[C@@H](C)NC(=O)[C@H](C)NC(=O)[C@H](CC(C)C)N(C)C(=O)[C@H](C(C)C)NC(=O)[C@H](CC(C)C)N(C)C(=O)CN(C)C1=O | 100 times less active than cyclosporin A | –

Reference: ChEMBL document CHEMBL1128785, “Modifications of the MeBmt side chain of cyclosporin A” (Bioorg Med Chem Lett, 1995)
